Reference: paper PMC10508484, “Development and application of a PBPK modeling strategy to support antimalarial drug development” (CPT: Pharmacometrics & Systems Pharmacology, 2023)
Where two headings read alike, the source gives them in different places.

What was measured:
[1] = cited from earlier work; for Cmax: read-out: Cmax Obs
[2] = ref Charman et al., 2020 1; cited from earlier work
[3] = cited from earlier work; for fu: PBPK input
CYP1A2 = conditions: read-out: CYP1A2 IC50; ref Charman et al., 2020 1; cited from earlier work
[4] = In vitro flags for victim and perpetrator properties conferring DDI liability; assay type: in vitro ADME, human; conditions: in vitro flag, mainly based on in vitro determinations
Caco-2 cells = conditions: calibrated against propranolol; plasma as medium for atovaquone and piperaquine; ref Charman et al., 2020 1; cited from earlier work
[5] = cited from earlier work; for CL IV: clinically observed, ref atovaquone Lavelle et al., 1994 17, chloroquine Walker et al., 1987 29, Gustafsson et al., 1983 30, doxycycline Raghuram et al., 1982 48, Nguyen et al., 1989 49, primaquine Mihaly et al., 1985 26, quinine White et al., 1983 77, Paintaud et al., 1993 78
[6] = Fraction unbound in human liver microsomes (fumic); conditions: extrapolated from value measured at 0.4 mg/mL to 0.1 mg/mL, method of Austin et al., 2002
CYP2C9 = conditions: ref mefloquine Karbwang et al., 1988 58; tafenoquine Charman et al., 2020 1; cited from earlier work
[7] = ref Charman et al., 2020 1; cited from earlier work; remark: listed apart in the source
[8] = ref atovaquone Mepron Prescribing Information, 2008, Nixon et al., 2013 13, Rolan et al., 1997 14, azithromycin Foulds et al., 1990 20, chloroquine Ofori-Adjei et al., 1986 27, Walker et al., 1983 28, DHA Batty et al., 2004 41 (healthy volunteers), lumefantrine CDER submission 22-269, proguanil Wattanagoon et al., 1987 63, tafenoquine Dow et al., 2020 84

COc1cc(NC(C)CCCN)c2ncccc2c1 (stereo not drawn) [Primaquine, primaquine]
AUC Obs ([1]; 15 mg QD (Day 14), 0-inf, ref Ward et al., 1985 14): 443 ng·h/mL
Cmax Obs ([1]; 15 mg QD (Day 14), ref Ward et al., 1985 14): 66 ng/mL
AUC Obs ([1]; 15 mg SD, 0-inf, ref Mihaly et al., 1985 12): 500 ng·h/mL
AUC Obs ([1]; 15 mg SD, 0-inf, ref Ward et al., 1985 14): 468 ng·h/mL
Cmax Obs ([1]; 15 mg SD, ref Mihaly et al., 1985 12): 53 ng/mL
Cmax Obs ([1]; 15 mg SD, ref Ward et al., 1985 14): 65 ng/mL
AUC Obs ([1]; 30 mg SD, 0-inf, ref Hanboonkunupakarn et al., 2014 13): 1130 ng·h/mL
AUC Obs ([1]; 30 mg SD, 0-inf, ref Jittamala et al., 2015 15): 1180 ng·h/mL
Cmax Obs ([1]; 30 mg SD, ref Hanboonkunupakarn et al., 2014 13): 128 ng/mL
Cmax Obs ([1]; 30 mg SD, ref Jittamala et al., 2015 15): 139 ng/mL
AUC Obs ([1]; 45 mg SD, 0-inf, ref Mihaly et al., 1985 12): 1700 ng·h/mL
Cmax Obs ([1]; 45 mg SD, ref Mihaly et al., 1985 12): 176 ng/mL
B:P [2]: 0.82
fu ([3]; ref Charman et al., 2020 1): 0.26
IC50 (CYP1A2): < 0.25 µM
Risk as a perpetrator [4]: CYP1A2 inhibitor
Risk as a victim [4]: Substrate of MAO and CYP2D6
Caco-2 (Papp A-B) (Caco-2 cells): 29 10-6 cm/s
CL IV [5]: 24.2 L/h
fe (fraction excreted unchanged in urine) ([5]; ref atovaquone Rolan et al., 1997 14, mefloquine Schwartz et al., 1982 57, primaquine White, 1985 62, proguanil (extensive metabolisers) Jeppesen et al., 1997 34, pyronaridine Wattanavijitkul, 2010 74, sulfadoxine assumed with Edstein, 1987 83): < 0.01%
fumic [6]: 0.84

COc1cc(C)c2c(Oc3cccc(C(F)(F)F)c3)c(OC)cc(NC(C)CCCN)c2n1 (stereo not drawn) [Tafenoquine, tafenoquine]
AUC Obs ([1]; 300 mg SD, 0-72 h, ref Green et al., 2014 45): 10611 ng·h/mL
Cmax Obs ([1]; 300 mg SD, ref Green et al., 2014 45): 186 ng/mL
AUC Obs ([1]; 400 mg QD (3 days), 0-72 h, ref Green et al., 2014 45): 41896 ng·h/mL
Cmax Obs ([1]; 400 mg QD (3 days), ref Green et al., 2014 45): 724 ng/mL
AUC Obs ([1]; 600 mg SD, 0-72 h, ref Green et al., 2014 45): 22986 ng·h/mL
Cmax Obs ([1]; 600 mg SD, ref Green et al., 2014 45): 422 ng/mL
B:P [2]: 1.3
fu [3, 8]: 0.005
fu, range reported in the literature ([3]; depending on the methodology used, ref literature): 0.0007 to 0.11
Main binding protein ([3]; ref amodiaquine, DEAQ Hietala, 2009 2, atovaquone Nixon et al., 2013 13, DHA Batty et al., 2004 41, mefloquine, tafenoquine (also AGP) Zsila et al., 2008 54): HSA
Risk as a perpetrator [4]: CYP3A4 and CYP2C9 inhibitor
Ki (CYP2C9): 10 µM
CL PO ([5]; clinically observed oral (in vivo) clearance, pyronaridine: blood, ref amodiaquine Winstanley et al., 1987 9, DEAQ Akande et al., 2015 8, Scarsi et al., 2014 35, Tarning et al., 2012 36, Orrell et al., 2008 37, DHA Na-Bangchang et al., 2004 42, lumefantrine Lefevre et al., 2002 52, Hoglund et al., 2015 53, mefloquine Charles et al., 2007 56, proguanil Jeppesen et al., 1997 34, pyronaridine Jittama): 3.08 L/h

O=C1C(O)=C([C@H]2CC[C@H](c3ccc(Cl)cc3)CC2)C(=O)c2ccccc21 [Atovaquone, atovaquone]
pKa(s) [7]: 4.28
AUC Obs ([1]; 250 mg QD, 0-24 h, ref Thapar et al., 2002 10): 254 µM·h
AUC Obs ([1]; 250 mg SD, 0-inf, ref Thapar et al., 2002 10): 295 µM·h
AUC Obs ([1]; 500 mg SD, AUC window Unknown, ref Rolan et al., 1994 9): 288000 ng·h/mL
Cmax Obs ([1]; 500 mg SD, ref Rolan et al., 1994 9): 4400 ng/mL
Cmax ([1]; 250 mg QD, ref Thapar et al., 2002 10): 13.8 µM
Cmax ([1]; 250 mg SD, ref Thapar et al., 2002 10): 3.7 µM
fu [3, 8]: 0.001
Risk as a perpetrator [4]: BCRP inhibitor
Risk as a victim [4]: Cleared by biliary excretion
Caco-2 (Papp A-B) (Caco-2 cells): 300 10-6 cm/s
CL IV [5]: 0.62 L/h
CL renal ([5]; in vivo): 0 L/h
fe (fraction excreted unchanged in urine) ([5]; in vivo): < 0.6%
